Measurements: patent US11932845B2, “Microorganisms and methods for production of 4-hydroxybutyrate, 1,4-butanediol and related compounds” (priority 2012, dated 2024)
Read-outs that look alike come from different tables or passages of the source.

What was measured:
[1] = test system: Alcohol dehydrogenase; test: Alcohol dehydrogenase (ADH) assay in the reductive direction, cell extracts; conditions: cell extracts from MG1655 lacI^Q containing pZA33
Protocol: (§1) Alcohol (ADH) and aldehyde (ALD) dehydrogenase was assayed in the reductive direction using a procedure adapted from several literature sources (Durre et al., FEMS Microbiol. Rev. 17:251-262 (1995); Palosaari and Rogers, J. Bacteriol. 170:2971-2976 (1988) and Welch et al., Arch. Biochem. Biophys. 273:309-318 (1989). The oxidation of NADH is followed by reading absorbance at 340 nm every four seconds for a total of 240 seconds at room temperature. The reductive assays were performed in 100 mM MOPS (adjusted to pH 7.5 with KOH), 0.4 mM NADH, and from 1 to 50 μl of cell extract. The reaction is started by adding the following reagents: 100 μl of 100 mM acetaldehyde or butyraldehyde for ADH, or 100 μl of 1 mM acetyl-CoA or butyryl-CoA for ALD. The Spectrophotometer is quickly blanked and then the kinetic read is started. The resulting slope of the reduction in absorbance at 340 nm per minute, along with the molar extinction coefficient of NAD(P)H at 340 nM (6000) and the protein concentration of the extract, can be used to determine the specific activity.
(§2) Gene candidates for the 4-HB to BDO conversion pathway were next tested for activity when expressed in the E. coli host MG1655 lacI^Q. Recombinant strains containing each gene candidate expressed on pZA33 were grown in the presence of 0.25 mM IPTG for four hours at 37° C. to fully induce expression of the enzyme. Four hours after induction, cells were harvested and assayed for ADH and ALD activity as described above.

[2] = test system: Aldehyde dehydrogenase; test: Aldehyde dehydrogenase (ALD) assay in the reductive direction, cell extracts; conditions: cell extracts from MG1655 lacI^Q containing pZA33
Protocol: as §1, §2

[3] = test system: alcohol dehydrogenase from Brevibacterium sp KU 1309; conditions: reduction of carbonyl compounds; cited from earlier work
[4] = test system: alcohol dehydrogenase from Brevibacterium sp KU; conditions: oxidation of alcohols, cited from earlier work; for Relative Activity: 2-phenylethanol taken as 100%
[5] = test system: L(+)-lactate dehydrogenase from A. eutrophus; conditions: compared with that on pyruvate; cited from earlier work
[6] = molecular target: T1, L(+)-lactate dehydrogenase from rabbit muscle (Oryctolagus cuniculus, UniProt P13491); conditions: compared with that on pyruvate; cited from earlier work
T1 construct: host or cells: rabbit muscle

[7] = test system: D(−)-lactate dehydrogenase from L. leichmanii; conditions: compared with that on pyruvate; cited from earlier work
[8] = molecular target: homoserine kinase (Escherichia coli, UniProt P00547); conditions: cited from earlier work
homoserine kinase, sequence (P00547 whole entry): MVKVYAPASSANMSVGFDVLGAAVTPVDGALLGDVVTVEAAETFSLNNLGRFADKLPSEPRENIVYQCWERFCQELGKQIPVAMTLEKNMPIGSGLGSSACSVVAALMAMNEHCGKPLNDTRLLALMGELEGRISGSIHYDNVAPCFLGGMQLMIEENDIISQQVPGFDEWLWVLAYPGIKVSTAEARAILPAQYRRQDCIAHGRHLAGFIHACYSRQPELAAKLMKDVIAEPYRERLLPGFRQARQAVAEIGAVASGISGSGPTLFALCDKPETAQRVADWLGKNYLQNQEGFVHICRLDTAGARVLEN

[9] = test system: aminotransferase; conditions: activity considered 100% on tyrosine; cited from earlier work
[10] = test system: cytochrome-bd oxidases; conditions: cited from earlier work; for Km: pH 7
[11] = test system: 4-HB to BDO conversion pathway; test: Production of BDO from 10 mM 4-HB in recombinant E. coli strains; conditions: for BDO: 10 mM 4-HB, 24 hours, cat2 (0034) on pZA33
Protocol: For the BDO production experiments, cat2 from Porphyromonas gingivalis W83 (gene 0034) was included on pZA33 for the conversion of 4-HB to 4-HB-CoA, while the candidate dehydrogenase genes were expressed on pZE13. The host strain was MG1655 lacI^Q. Along with the alcohol and aldehyde dehydrogenase candidates, we also tested the ability of CoA-dependent succinic semialdehyde dehydrogenases (sucD) to function in this step, due to the similarity of the substrates. Cells were grown to an OD of about 0.5 in LB medium supplemented with 10 mM 4-HB, induced with 1 mM IPTG, and culture broth samples taken after 24 hours and analyzed for BDO as described below.
Finally, the construct was tested for participation in the conversion of 4-HB to BDO. Host strains were transformed with the pZA33-0020-0021 construct described and pZE13-0002, and compared to use of cat2 in BDO production using the aerobic procedure used above in FIG. 5.

For “0011: Gene ID 0011, adhE, E. coli, Aldehyde/alcohol dehydrogenase [Sample 0011]”, the “Alcohol dehydrogenase, Substrate Acetaldehyde” value [1] was 0.0093 μmol min^−1 mg cell protein^−1, the “Alcohol dehydrogenase, Substrate Butyraldehyde” value [1] was 0.0265 μmol min^−1 mg cell protein^−1 and the “Aldehyde dehydrogenase, Substrate Acetyl-CoA” value [2] was 0.0095 μmol min^−1 mg cell protein^−1. For the same molecule, the “Aldehyde dehydrogenase, Substrate Butyryl-CoA” value [2] was 0.0069 μmol min^−1 mg cell protein^−1.

For `CCCCCCCC=O` [1-Octylaldehyde], the “Relative Activity” value [3] is listed as 87%.

In the case of `CC(O)c1ccccc1` (stereo not drawn) [1-Phenylethanol], the “Relative Activity” value [4] is listed as 46 0%.

For `CCC(=O)C(=O)O` [2-Oxobutyrate], the “Activity (%) of L(+)-lactate dehydrogenase from A. eutrophus” value (shortened to “Activity (%) … from A. eutrophus”) [5] is listed as 107.0%, the “Activity (%) of L(+)-lactate dehydrogenase from rabbit muscle” value (from here on “Activity (%) … from rabbit muscle”) [6] is listed as 18.6% and the “Activity (%) of D(−)-lactate dehydrogenase from L. leichmanii” value (shortened to “Activity (%) … from L. leichmanii”) [7] is listed as 1.1%.

In the case of `CCCC(=O)C(=O)O` [2-Oxovalerate], the “Activity (%) … from A. eutrophus” value [5] is listed as 125.0%, the “Activity (%) … from rabbit muscle” value [6] is listed as 0.7% and the “Activity (%) … from L. leichmanii” value [7] is listed as 0.0%.

In the case of `CC(C=O)c1ccccc1` (stereo not drawn) [2-Phenylpropionaldehyde], the “Relative Activity” value [3] is listed as 188%.

In the case of `O=C(O)C(=O)CF` [3-Fluoropyruvate], the “Activity (%) … from A. eutrophus” value [5] is listed as 33.6%, the “Activity (%) … from rabbit muscle” value [6] is listed as 74.3% and the “Activity (%) … from L. leichmanii” value [7] is listed as 40.0%.

For `CC(C)C(=O)C(=O)O` [3-Methyl-2-oxobutyrate], the “Activity (%) … from A. eutrophus” value [5] is given as 28.5%, the “Activity (%) … from rabbit muscle” value [6] is given as 0.0% and the “Activity (%) … from L. leichmanii” value [7] is given as 0.0%.

For `CCC(C)C(=O)C(=O)O` (stereo not drawn) [3-Methyl-2-oxovalerate], the “Activity (%) … from A. eutrophus” value [5] is given as 5.3%, the “Activity (%) … from rabbit muscle” value [6] is given as 0.0% and the “Activity (%) … from L. leichmanii” value [7] is given as 0.0%.

For `OCCCc1ccccc1` [3-Phenylpropanol], the “Relative Activity” value [4] is listed as 135 0% and the Km [4] is listed as 33 µM.

In the case of `CC(C)CC(=O)C(=O)O` [4-Methyl-2-oxopentanoate], the “Activity (%) … from A. eutrophus” value [5] is listed as 39.0%, the “Activity (%) … from rabbit muscle” value [6] is listed as 1.4% and the “Activity (%) … from L. leichmanii” value [7] is listed as 1.1%.

For `C[C@@H](CO)c1ccccc1` [(R)-2-Phenylpropanol], the “Relative Activity” value [4] is listed as 63 0% and the Km [4] is listed as 20 µM.

In the case of `C[C@H](CO)c1ccccc1` [(S)-2-Phenylpropanol], the “Relative Activity” value [4] is listed as 156 0% and the Km [4] is listed as 157 µM.

For `CC(=O)c1ccccc1` [Acetophenone], the “Relative Activity” value [3] is listed as 0%.

In the case of `N[C@H](CCO)C(=O)O` [D-homoserine], the “% kcat” value [8] is listed as 32%.

In the case of `CCO` [Ethanol], the “Relative Activity” value [4] is listed as 76 0%.

In the case of `O=CC(=O)O` [Glyoxylate], the “Activity (%) … from A. eutrophus” value [5] is listed as 8.7% and the “Activity (%) … from L. leichmanii” value [7] is listed as 5.0%.

In the case of `N[C@H](CO)CCO` [L-2-amino-1,4-butanediol], the “% kcat” value [8] is given as 7.9%.

In the case of `N[C@@H](CCCO)C(=O)O` [L-2-amino-5-hydroxyvalerate], the “% kcat” value [8] is listed as 9.9% and the Km [8] is listed as 1.1 ± 0.5 mM.

In the case of `N[C@@H](CC=O)C(=O)O` [L-aspartate β-semialdehyde], the “% kcat” value [8] is given as 8.2% and the Km [8] is given as 0.28 ± 0.02 mM.

For `CCOC(=O)[C@@H](N)CCO` [L-homoserine ethyl ester], the “% kcat” value [8] is listed as 74%.

For `CC(C)COC(=O)[C@@H](N)CCO` [L-homoserine isobutyl ester], the “% kcat” value [8] is given as 84%.

In the case of `CC(C)OC(=O)[C@@H](N)CCO` [L-homoserine isopropyl ester], the “% kcat” value [8] is listed as 74%.

For `COC(=O)[C@@H](N)CCO` [L-homoserine methyl ester], the “% kcat” value [8] is listed as 80%.

For `CCCOC(=O)[C@@H](N)CCO` [L-homoserine n-propyl ester], the “% kcat” value [8] is listed as 76%.

In the case of `N[C@@H](CCO)C(=O)O` [L-homoserine], the “% kcat” value [8] is given as 100%.

In the case of `CCCCOC(=O)[C@@H](N)CCO` [L-homserine n-butyl ester], the “% kcat” value [8] is listed as 160% and the Km [8] is listed as 5.8 ± 0.8 mM.

For `O=CCc1ccccc1` [Phenylacetaldehyde], the “Relative Activity” value [3] is given as 100%.

For `CCCCO` [Sample 1-Butanol, 1-Butanol], the “Relative Activity” value [4] is listed as 111 0%.

For `CCCCCCCCCCCCO` [Sample 1-Dodecanol, 1-Dodecanol], the “Relative Activity” value [4] is listed as 68 0%.

For `CCCCCCCCO` [Sample 1-Octanol, 1-Octanol], the “Relative Activity” value [4] is listed as 101 0%.

In the case of `CC(C)O` [Sample 2-Propanol, 2-Propanol], the “Relative Activity” value [4] is given as 54 0%.

In the case of `CC(C)C[C@H](N)C(=O)O` [leucine], the activity [9] is given as 25%.

In the case of `CSCC[C@H](N)C(=O)O` [methionine], the activity [9] is given as 25%.

In the case of `N[C@@H](Cc1ccccc1)C(=O)O` [phenylalanine], the activity [9] is given as 90%.

In the case of `N[C@@H](Cc1c[nH]c2ccccc12)C(=O)O` [tryptophan], the activity [9] is given as 85%.

For `N[C@@H](Cc1ccc(O)cc1)C(=O)O` [tyrosine], the activity [9] is listed as 100%.

For Cytochrome bd-II, the “In vivo sp act” value [10] is listed as 70 ± 12 mol O2/mol cytochrome bd/s, the Vmax [10] is listed as 818 ± 75 mol O/mol cytochrome bd/s and the Km ([10]; read-out: Km (O2) at pH 7) is listed as 2 ± 0.3 µM. For the same molecule, the Km ([10]; read-out: Km (UQ-H2) at pH 7) was 250 ± 45 µM.

B1: Cytochrome bo (protein, UniProt P0ABJ1 25-315; P0ABI8 1-663; P0ABJ3 1-204; P0ABJ6 1-109, looked up)
Cytochrome bo(3) ubiquinol … 1: CNSALLDPKGQIGLEQRSLILTAFGLMLIVVIPAILMAVGFAWKYRASNKDAKYSPNWSHSNKVEAVVWTVPILIIIFLAVLTWKTTHALEPSKPLAHDEKPITIEVVSMDWKWFFIYPEQGIATVNEIAFPANTPVYFKVTSNSVMNSFFIPRLGSQIYAMAGMQTRLHLIANEPGTYDGISASYSGPGFSGMKFKAIATPDRAAFDQWVAKAKQSPNTMSDMAAFEKLAAPSEYNQVEYFSNVKPDLFADVINKFMAHGKSMDMTQPEGEHSAHEGMEGMDMSHAESAH
Cytochrome bo(3) ubiquinol … 2: MFGKLSLDAVPFHEPIVMVTIAGIILGGLALVGLITYFGKWTYLWKEWLTSVDHKRLGIMYIIVAIVMLLRGFADAIMMRSQQALASAGEAGFLPPHHYDQIFTAHGVIMIFFVAMPFVIGLMNLVVPLQIGARDVAFPFLNNLSFWFTVVGVILVNVSLGVGEFAQTGWLAYPPLSGIEYSPGVGVDYWIWSLQLSGIGTTLTGINFFVTILKMRAPGMTMFKMPVFTWASLCANVLIIASFPILTVTVALLTLDRYLGTHFFTNDMGGNMMMYINLIWAWGHPEVYILILPVFGVFSEIAATFSRKRLFGYTSLVWATVCITVLSFIVWLHHFFTMGAGANVNAFFGITTMIIAIPTGVKIFNWLFTMYQGRIVFHSAMLWTIGFIVTFSVGGMTGVLLAVPGADFVLHNSLFLIAHFHNVIIGGVVFGCFAGMTYWWPKAFGFKLNETWGKRAFWFWIIGFFVAFMPLYALGFMGMTRRLSQQIDPQFHTMLMIAASGAVLIALGILCLVIQMYVSIRDRDQNRDLTGDPWGGRTLEWATSSPPPFYNFAVVPHVHERDAFWEMKEKGEAYKKPDHYEEIHMPKNSGAGIVIAAFSTIFGFAMIWHIWWLAIVGFAGMIITWIVKSFDEDVDYYVPVAEIEKLENQHFDEITKAGLKNGN
Cytochrome bo(3) ubiquinol … 3: MATDTLTHATAHAHEHGHHDAGGTKIFGFWIYLMSDCILFSILFATYAVLVNGTAGGPTGKDIFELPFVLVETFLLLFSSITYGMAAIAMYKNNKSQVISWLALTWLFGAGFIGMEIYEFHHLIVNGMGPDRSGFLSAFFALVGTHGLHVTSGLIWMAVLMVQIARRGLTSTNRTRIMCLSLFWHFLDVVWICVFTVVYLMGAM
Cytochrome bo(3) ubiquinol … 4: MSHSTDHSGASHGSVKTYMTGFILSIILTVIPFWMVMTGAASPAVILGTILAMAVVQVLVHLVCFLHMNTKSDEGWNMTAFVFTVLIIAILVVGSIWIMWNLNYNMMMH
For B1, the Vmax [10] is given as 225 mol O/mol cytochrome bd/s.

B2: 0008n: Gene ID 0008 (native), sucD, Clostridium kluyveri DSM 555, Succinic semialdehyde dehydrogenase (CoA-dependent) (protein, UniProt P38947 1-453, looked up)
Succinate-semialdehyde …: MSNEVSIKELIEKAKVAQKKLEAYSQEQVDVLVKALGKVVYDNAEMFAKEAVEETEMGVYEDKVAKCHLKSGAIWNHIKDKKTVGIIKEEPERALVYVAKPKGVVAATTPITNPVVTPMCNAMAAIKGRNTIIVAPHPKAKKVSAHTVELMNAELKKLGAPENIIQIVEAPSREAAKELMESADVVIATGGAGRVKAAYSSGRPAYGVGPGNSQVIVDKGYDYNKAAQDIITGRKYDNGIICSSEQSVIAPAEDYDKVIAAFVENGAFYVEDEETVEKFRSTLFKDGKINSKIIGKSVQIIADLAGVKVPEGTKVIVLKGKGAGEKDVLCKEKMCPVLVALKYDTFEEAVEIAMANYMYEGAGHTAGIHSDNDENIRYAGTVLPISRLVVNQPATTAGGSFNNGFNPTTTLGCGSWGRNSISENLTYEHLINVSRIGYFNKEAKVPSYEEIWG
For B2, the BDO/OD ([11]; Aerobic) was 47.6, the BDO ([11]; Aerobic) was 255.8 µM and the BDO/OD ([11]; Anaerobic) was 98.1. For the same molecule, the BDO ([11]; Anaerobic) was 60.8 µM, the BDO/OD ([11]; Microaerobic) was 41.9 and the BDO ([11]; Microaerobic) was 127.9 µM.

B3: 0013: Gene ID 0013, bdhB, Clostridium acetobutylicum ATCC 824, Butanol dehydrogenase II (protein, UniProt Q04945 1-390, looked up)
NADH-dependent butanol …: MVDFEYSIPTRIFFGKDKINVLGRELKKYGSKVLIVYGGGSIKRNGIYDKAVSILEKNSIKFYELAGVEPNPRVTTVEKGVKICRENGVEVVLAIGGGSAIDCAKVIAAACEYDGNPWDIVLDGSKIKRVLPIASILTIAATGSEMDTWAVINNMDTNEKLIAAHPDMAPKFSILDPTYTYTVPTNQTAAGTADIMSHIFEVYFSNTKTAYLQDRMAEALLRTCIKYGGIALEKPDDYEARANLMWASSLAINGLLTYGKDTNWSVHLMEHELSAYYDITHGVGLAILTPNWMEYILNNDTVYKFVEYGVNVWGIDKEKNHYDIAHQAIQKTRDYFVNVLGLPSRLRDVGIEEEKLDIMAKESVKLTGGTIGNLRPVNASEVLQIFKKSV
With B3 the “Alcohol dehydrogenase, Substrate Acetaldehyde” value [1] was 0.0142 μmol min^−1 mg cell protein^−1 and the “Alcohol dehydrogenase, Substrate Butyraldehyde” value [1] was 0.0130 μmol min^−1 mg cell protein^−1.
